# Measured values reported in patent publication US10919885B2, “Compounds and uses thereof” (Yumanity Therapeutics, Inc., priority 2018, dated 2021).
# Target: human SCD1 (Homo sapiens (Human), UniProt O00767)
# Experiment: Yeast growth assay, strain expressing human SCD1 as the sole desaturase (reduced growth as surrogate for SCD inhibition)
# Type: cell-based
# Settings: yeast with OLE1 deleted expressing human SCD1 from a plasmid; growth read as OD600 after 40 h at 30° C.; top drug concentration 33.3 μM
# In short: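 Human SCD1 or SCD5 expressed from a plasmid in OLE1-deleted yeast as the sole desaturase. Cells washed free of Tween and fatty acids, grown with compound in SD-Ura glucose medium 40 h at 30 °C; growth measured as OD600, reduced growth taken as SCD inhibition.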
# Chain of human SCD1 (O00767 whole entry): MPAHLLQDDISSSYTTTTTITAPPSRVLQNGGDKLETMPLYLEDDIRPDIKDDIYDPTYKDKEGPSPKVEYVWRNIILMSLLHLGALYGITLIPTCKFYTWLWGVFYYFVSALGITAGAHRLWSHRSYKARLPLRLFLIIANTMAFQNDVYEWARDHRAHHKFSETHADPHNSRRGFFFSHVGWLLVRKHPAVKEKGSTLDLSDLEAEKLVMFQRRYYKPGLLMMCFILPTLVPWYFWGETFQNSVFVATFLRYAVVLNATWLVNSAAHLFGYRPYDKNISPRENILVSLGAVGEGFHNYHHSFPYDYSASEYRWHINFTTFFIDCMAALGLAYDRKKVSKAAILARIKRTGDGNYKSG
row,SMILES,IC50
1,"C#Cc1cc(C(=O)Nc2cnn(Cc3cccc(F)c3)c2)no1 [Compound 154, 5-ethynyl-N-(1-(3-fluorobenzyl)-1H-pyrazol-4-yl)isoxazole-3-carboxamide]",1.6 µM
2,CCOC(=O)c1cc(-c2cc(C(=O)Nc3cnn(Cc4cccc(F)c4)c3)no2)on1 [Compound 155],> 45 µM
3,O=C(Nc1cnn(Cc2ccccc2)c1)c1cc(-c2ccc(F)cc2F)on1 [Compound 157],> 45 µM
4,NC(=O)c1cc(C(=O)Nc2cnn(Cc3cccc(F)c3)c2)no1 [Compound 162],> 45 µM
5,Cc1nnc(-c2cc(C(=O)Nc3cnn(Cc4ccccc4)c3)no2)s1 [Compound 163],> 45 µM
6,Cc1nnc(-c2cc(C(=O)Nc3cnn(Cc4ccccc4)c3)no2)o1 [Compound 165],> 45 µM
7,CC(C)c1cc(C(=O)Nc2cnn(CC34CCC(CC3)CC4)c2)no1 [Compound 167],> 45 µM
8,O=C(Nc1cnn(Cc2cccc(F)c2)c1)c1cc(-c2ccno2)on1 [Compound 168],> 45 µM
9,N#Cc1cc(C(=O)Nc2cnn(Cc3cccc(F)c3)c2)no1 [Compound 169],> 45 µM
10,Cc1ccncc1Cn1cc(NC(=O)c2cc(-c3ccccc3F)on2)cn1 [Compound 172],> 45 µM
11,COc1ccncc1Cn1cc(NC(=O)c2cc(-c3ccccc3F)on2)cn1 [Compound 173],> 45 µM
12,Cc1nnc(-c2cc(C(=O)Nc3cnn(Cc4cccc(F)c4)c3)no2)s1 [Compound 175],> 45 µM
13,CC(C)c1cc(C(=O)Nc2cc3ccccn3n2)no1 [Compound 176],> 45 µM
14,O=C(Nc1cnn(Cc2cccnc2C(F)(F)F)c1)c1cc(-c2ccccc2F)on1 [Compound 177],> 45 µM
15,Cc1nnc(-c2cc(C(=O)Nc3cnn(Cc4cccc(F)c4)c3)no2)o1 [Compound 179],> 45 µM
16,CN1CCN(c2cc(C(=O)Nc3cnn(Cc4ccccc4)c3)no2)CC1 [Compound 183],> 45 µM
17,O=C(Nc1cnn(Cc2cccc(F)c2)c1)c1cc(CO)on1 [Compound 191],> 45 µM
18,Nc1cc(C(=O)Nc2cnn(Cc3ccccc3)c2)no1 [Compound 192],> 45 µM

# More lines, now with the values ahead:
row,IC50,SMILES
1,11 µM,O=C(Nc1cnn(Cc2ccccc2)c1)c1cc(-c2cnsc2)on1 [Compound 146]
2,> 45 µM,"O=C(Nc1cnn(Cc2ccccc2)c1)c1cc(-c2ccncc2F)on1 [Compound 147, N-(1-benzyl-1H-pyrazol-4-yl)-5-(3-fluoropyridin-4-yl)isoxazole-3-carboxamide]"
3,> 45 µM,CCOC(=O)c1cc(C(=O)Nc2cnn(Cc3ccccc3)c2)on1 [Compound 151]
4,> 45 µM,CC(C)(O)c1cc(C(=O)Nc2cnn(Cc3ccccc3)c2)on1 [Compound 152]
5,9 µM,C=C(C)c1cc(C(=O)Nc2cnn(Cc3ccccc3)c2)on1 [Compound 153]
6,8.2 µM,O=C(Nc1cnn(Cc2cccc(F)c2)c1)c1cc(-c2nncs2)on1 [Compound 174]
7,5.8 µM,CC(C)(C)OC(=O)Nc1cc(C(=O)Nc2cnn(Cc3ccccc3)c2)no1 [Compound 181]
8,29 µM,CC(=O)N1CCN(c2cc(C(=O)Nc3cnn(Cc4ccccc4)c3)no2)CC1 [Compound 184]

# Target: human SCD5 (Homo sapiens (Human), UniProt Q86SK9)
# Sequence (Q86SK9 whole entry): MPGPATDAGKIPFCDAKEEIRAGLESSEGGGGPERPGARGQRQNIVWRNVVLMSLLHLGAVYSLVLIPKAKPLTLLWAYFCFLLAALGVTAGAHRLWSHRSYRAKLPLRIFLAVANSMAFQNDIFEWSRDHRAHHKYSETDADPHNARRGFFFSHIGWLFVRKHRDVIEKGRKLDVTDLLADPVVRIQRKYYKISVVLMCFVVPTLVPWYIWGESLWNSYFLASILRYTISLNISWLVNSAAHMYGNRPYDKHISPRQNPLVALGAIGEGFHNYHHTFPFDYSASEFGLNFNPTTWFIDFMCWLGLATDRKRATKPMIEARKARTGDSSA
# Experiment: Yeast growth assay, strain expressing human SCD5 as the sole desaturase (reduced growth as surrogate for SCD inhibition)
# Type: cell-based
# Settings: yeast with OLE1 deleted expressing human SCD5 from a plasmid; growth read as OD600 after 40 h at 30° C.; top drug concentration 33.3 μM
# Description: Strains expressing SCD1 or SCD5 as the sole desaturase, the human SCD1 and SCD5 genes were used to evaluate inhibition of SCD1/SCD5 using reduced growth as a surrogate for SCD inhibition. These yeast strains express human SCD1 or SCD5 from a plasmid harbored in a strain in which the yeast OLE1 gene is deleted.
# All compound profiling experiments were performed using the same basic protocol. Yeast were cultured using standard techniques in complete synthetic media lacking uracil and containing yeast nitrogen base supplemented with 2% (w/v) glucose (SD-Ura) Starter cultures were inoculated in 3 mL SD-Ura media containing 0.01% tween and 0.2 mM palmitoleic and oleic acid. Cultures were incubated overnight in a 30° C. shaker incubator (225 rpm). Saturated morning cultures were centrifuged, washed in SD-Ura media lacking TWEEN-20 and fatty acids, and then diluted 1:20 in fresh SD-Ura media also lacking TWEEN-20 and fatty acids.
# Compound administration was performed in two separate steps. First, 15 μL of SD-Ura was dispensed into clear 384-well assay plates using a MULTIDROP™ Combi reagent dispenser. […] The cultures described above were centrifuged and washed with media lacking TWEEN-20 or oleic and palmitoleic acids.
# After yeast delivery, assay plates were incubated under humidified conditions at 30° C. for 40 h. Yeast growth was monitored by reading the OD600 of each well using a microplate reader (Perkin Elmer EnVision™).
row,SMILES,IC50
1,"C#Cc1cc(C(=O)Nc2cnn(Cc3cccc(F)c3)c2)no1 [Compound 154, 5-ethynyl-N-(1-(3-fluorobenzyl)-1H-pyrazol-4-yl)isoxazole-3-carboxamide]",5.2 µM
2,CCOC(=O)c1cc(-c2cc(C(=O)Nc3cnn(Cc4cccc(F)c4)c3)no2)on1 [Compound 155],> 45 µM
3,O=C(Nc1cnn(Cc2ccccc2)c1)c1cc(-c2ccc(F)cc2F)on1 [Compound 157],> 45 µM
4,NC(=O)c1cc(C(=O)Nc2cnn(Cc3cccc(F)c3)c2)no1 [Compound 162],> 45 µM
5,Cc1nnc(-c2cc(C(=O)Nc3cnn(Cc4ccccc4)c3)no2)s1 [Compound 163],> 45 µM
6,Cc1nnc(-c2cc(C(=O)Nc3cnn(Cc4ccccc4)c3)no2)o1 [Compound 165],> 45 µM
7,CC(C)c1cc(C(=O)Nc2cnn(CC34CCC(CC3)CC4)c2)no1 [Compound 167],> 45 µM
8,O=C(Nc1cnn(Cc2cccc(F)c2)c1)c1cc(-c2ccno2)on1 [Compound 168],> 45 µM
9,N#Cc1cc(C(=O)Nc2cnn(Cc3cccc(F)c3)c2)no1 [Compound 169],> 45 µM
10,Cc1ccncc1Cn1cc(NC(=O)c2cc(-c3ccccc3F)on2)cn1 [Compound 172],> 45 µM
11,COc1ccncc1Cn1cc(NC(=O)c2cc(-c3ccccc3F)on2)cn1 [Compound 173],> 45 µM
12,Cc1nnc(-c2cc(C(=O)Nc3cnn(Cc4cccc(F)c4)c3)no2)s1 [Compound 175],> 45 µM
13,CC(C)c1cc(C(=O)Nc2cc3ccccn3n2)no1 [Compound 176],> 45 µM
14,O=C(Nc1cnn(Cc2cccnc2C(F)(F)F)c1)c1cc(-c2ccccc2F)on1 [Compound 177],> 45 µM
15,Cc1nnc(-c2cc(C(=O)Nc3cnn(Cc4cccc(F)c4)c3)no2)o1 [Compound 179],> 45 µM
16,CN1CCN(c2cc(C(=O)Nc3cnn(Cc4ccccc4)c3)no2)CC1 [Compound 183],> 45 µM
17,O=C(Nc1cnn(Cc2cccc(F)c2)c1)c1cc(CO)on1 [Compound 191],> 45 µM
18,Nc1cc(C(=O)Nc2cnn(Cc3ccccc3)c2)no1 [Compound 192],> 45 µM

# Now from value to compound:
row,IC50,SMILES
1,> 45 µM,O=C(Nc1cnn(Cc2ccccc2)c1)c1cc(-c2cnsc2)on1 [Compound 146]
2,7.4 µM,"O=C(Nc1cnn(Cc2ccccc2)c1)c1cc(-c2ccncc2F)on1 [Compound 147, N-(1-benzyl-1H-pyrazol-4-yl)-5-(3-fluoropyridin-4-yl)isoxazole-3-carboxamide]"
3,> 45 µM,CCOC(=O)c1cc(C(=O)Nc2cnn(Cc3ccccc3)c2)on1 [Compound 151]
4,> 45 µM,CC(C)(O)c1cc(C(=O)Nc2cnn(Cc3ccccc3)c2)on1 [Compound 152]
5,7 µM,C=C(C)c1cc(C(=O)Nc2cnn(Cc3ccccc3)c2)on1 [Compound 153]
6,> 45 µM,O=C(Nc1cnn(Cc2cccc(F)c2)c1)c1cc(-c2nncs2)on1 [Compound 174]
7,> 45 µM,CC(C)(C)OC(=O)Nc1cc(C(=O)Nc2cnn(Cc3ccccc3)c2)no1 [Compound 181]
8,> 45 µM,CC(=O)N1CCN(c2cc(C(=O)Nc3cnn(Cc4ccccc4)c3)no2)CC1 [Compound 184]
